Measured values as given in paper PMC7434893 (British Journal of Cancer, 2020).

Assays:
[1] = tested on: MDA-MB-453; assay: 8-day growth inhibition; format: cell-based; conditions: Breast, MDA-MB-453, 8-day assay
[2] = tested on: NCI-H82; assay: 8-day growth inhibition; format: cell-based; conditions: SCLC, NCI-H82, 8-day assay
[3] = tested on: THP-1; assay: 8-day growth inhibition; format: cell-based; conditions: AML, THP-1, 8-day assay
[4] = tested on: Toledo; assay: 8-day growth inhibition; format: cell-based; conditions: DLBCL (GC), 8-day assay
[5] = tested on: HEC-59; assay: 8-day growth inhibition; format: cell-based; conditions: Endometrial, HEC-59, 8-day assay
[6] = tested on: JVM-13; assay: 8-day growth inhibition; format: cell-based; conditions: MCL, JVM-13, 8-day assay
[7] = tested on: HCT-15; assay: 8-day growth inhibition; format: cell-based; conditions: Colon, HCT-15, 8-day assay
[8] = tested on: NCI-H146; assay: 8-day growth inhibition; format: cell-based; conditions: SCLC, NCI-H146, 8-day assay
[9] = tested on: NCI-H929; assay: 8-day growth inhibition; format: cell-based; conditions: Myeloma, NCI-H929, 8-day assay
[10] = tested on: HT; assay: 8-day growth inhibition; format: cell-based; conditions: DLBCL (GC), 8-day assay
[11] = tested on: ECC-1; assay: 8-day growth inhibition; format: cell-based; conditions: Endometrial, ECC-1, 8-day assay
[12] = tested on: NCI-H446; assay: 8-day growth inhibition; format: cell-based; conditions: SCLC, NCI-H446, 8-day assay
[13] = tested on: RPMI-8226; assay: 8-day growth inhibition; format: cell-based; conditions: Myeloma, RPMI-8226, 8-day assay
[14] = tested on: HL-60; assay: 8-day growth inhibition; format: cell-based; conditions: Promyelocytic leukemia, HL-60, 8-day assay
[15] = tested on: SF-295; assay: 8-day growth inhibition; format: cell-based; conditions: GBM, SF-295, 8-day assay
[16] = tested on: advanced solid tumours; assay: Clinical outcome by 2X-121 DRP prediction; format: in vivo, human
Description: Matching baseline transcriptome and growth inhibition data were available for 61 of the 74 cell lines, and were used to develop a DRP as previously described.[21],[22] Briefly, IC50 values in the 61 cell lines were correlated to gene-expression levels in the same cell lines; 172 genes with a Pearson correlation above 0.25 were retained as potential markers of sensitivity, while 242 genes with a Pearson correlation below −0.25 were retained as potential markers of resistance. The 414 genes were searched in PubMed for known associations to DNA damage response or Wnt/β-catenin pathways. The 111 pathway-associated genes are shown in Supplementary Table 2. Archival biopsies, in the form of formalin-fixed paraffin-embedded blocks and slides, were obtained from patients in the trial. Only those samples that yielded RNA of sufficient quantity and quality were evaluated for gene expression. The expression of the 414 genes in the 2X-121 DRP was analysed via a custom Affymetrix U133_Plus2 microarray according to the manufacturer’s instructions. The 2X-121 DRP was applied in a blinded manner following a prespecified analysis plan. The difference between the means of the genes that were positively correlated and those negatively correlated to response was used as a single prediction score for each patient, after normalisation to a range of 0–100.
As a first-in-human phase 1 clinical trial, no formal sample-size calculation or hypothesis testing was undertaken. Analysis of biomarker predictions was performed using a 1-sided Pearson correlation test and a 1-sided log-rank test for time-to-event data according to a prespecified analysis plan.

[17] = tested on: HepG2; assay: 8-day growth inhibition; format: cell-based; conditions: HCC, HepG2, 8-day assay
[18] = tested on: SR; assay: 8-day growth inhibition; format: cell-based; conditions: B cell lymphoma, 8-day assay
[19] = tested on: MC/CAR; assay: 8-day growth inhibition; format: cell-based; conditions: Myeloma, 8-day assay
[20] = tested on: MFE-280; assay: 8-day growth inhibition; format: cell-based; conditions: Endometrial, MFE-280, 8-day assay
[21] = tested on: Namalwa; assay: 8-day growth inhibition; format: cell-based; conditions: Burkitt's lymphoma, 8-day assay
[22] = tested on: BT-20; assay: 8-day growth inhibition; format: cell-based; conditions: Breast, BT-20, 8-day assay
[23] = tested on: HEC-50B; assay: 8-day growth inhibition; format: cell-based; conditions: Endometrial, 8-day assay
[24] = tested on: HCT-116; assay: 8-day growth inhibition; format: cell-based; conditions: Colon, HCT-116, 8-day assay
[25] = tested on: DU145; assay: 8-day growth inhibition; format: cell-based; conditions: Prostate, DU145, 8-day assay
[26] = tested on: HT-1080; assay: 8-day growth inhibition; format: cell-based; conditions: Fibrosarcoma, HT-1080, 8-day assay
[27] = tested on: PARP2; conditions: read-out: IC50, enzymatic activity of PARP2; cited from earlier work
[28] = 6 patients predicted sensitive by 2X-121 DRP (cut-off 50)
[29] = 7 patients predicted not sensitive by 2X-121 DRP

O=c1[nH]nc2c3c(cccc13)N=C(CN1Cc3ccccc3C1)N2 [E7449]
IC50 [1]: 6200 nM | IC50 [2]: 470 nM | IC50 [3]: 5400 nM | IC50 [4]: 1600 nM | IC50 [5]: 2440 nM | IC50 [6]: 7300 nM | IC50 [7]: 2200 nM | IC50 [8]: 930 nM | IC50 [9]: 5200 nM | IC50 [10]: 660 nM | IC50 [11]: 680 nM | IC50 [12]: 610 nM | IC50 [13]: 9300 nM | IC50 [14]: 10300 nM | IC50 [15]: 2600 nM | Median overall survival [16, 28]: > 800 days | Median time to progression [16, 28]: 296 days | Median overall survival [16, 29]: 208 days | Median time to progression [16, 29]: 155 days | IC50 [17]: 3800 nM | IC50 [18]: 260 nM | IC50 [19]: 2300 nM | IC50 [20]: 770 nM | IC50 [21]: 2500 nM | IC50 [22]: 7900 nM | IC50 [23]: 3450 nM | IC50 [24]: 1700 nM | IC50 [25]: 1800 nM | IC50 [26]: 830 nM | IC50 [27]: […]
